In brackets after ≈: the same amount, converted by molar mass.
Test: Cytotoxicity against Homo sapiens (human) U87 cells by MTT assay
Format: functional, cell-based, U-87MG ATCC
Conditions: U-87 MG

Row | SMILES | IC50 [µg/mL]
1 | O=C1C(=O)N(CCCBr)c2ccccc21 | 2.5 (≈ 9.32 µM)
2 | O=C1C(=O)N(CCCCBr)c2ccccc21 | 19 (≈ 67.3 µM)
3 | O=C1C(=O)N(CCCCCCBr)c2ccccc21 | 19 (≈ 61.3 µM)
4 | Cc1nn(-c2ccccc2)c2c1C1(C(=O)Nc3ccccc31)C(C#N)=C(N)O2 (configuration not stated) | 156 (≈ 422 µM)
5 | O=C1C(=O)N(CCBr)c2ccccc21 | 4.9 (≈ 19.3 µM)
6 | Cc1nn(-c2ccccc2)c2c1C1(C(=O)Nc3ccc(Br)cc31)C(C#N)=C(N)O2 (configuration not stated) | 156 (≈ 348 µM)
7 | Cc1nn(-c2ccccc2)c2c1C1(C(=O)N(CCBr)c3ccccc31)C(C#N)=C(N)O2 (configuration not stated) | 78 (≈ 164 µM)
8 | Cc1nn(-c2ccccc2)c2c1C1(C(=O)N(CCCBr)c3ccccc31)C(C#N)=C(N)O2 (configuration not stated) | 78 (≈ 159 µM)
9 | Cc1nn(-c2ccccc2)c2c1C1(C(=O)N(CCCCBr)c3ccccc31)C(C#N)=C(N)O2 (configuration not stated) | 39 (≈ 77.3 µM)
10 | Cc1nn(-c2ccccc2)c2c1C1(C(=O)N(CCCCCCBr)c3ccccc31)C(C#N)=C(N)O2 (configuration not stated) | 78 (≈ 146 µM)
11 | Cc1nn(-c2ccccc2)c2c1C1(C(=O)N(CCCCCCCCCCBr)c3ccccc31)C(C#N)=C(N)O2 (configuration not stated) | 19 (≈ 32.3 µM)
12 | O=C1C(=O)N(CCCCCCCCCCBr)c2ccccc21 | 19 (≈ 51.9 µM)
13 | N#CC1=C(N)Oc2[nH]c(=S)[nH]c(=O)c2C12C(=O)Nc1ccc(Br)cc12 (configuration not stated) | 156 (≈ 373 µM)
14 | N#CC1=C(N)Oc2[nH]c(=S)[nH]c(=O)c2C12C(=O)N(CCBr)c1ccccc12 (configuration not stated) | 78 (≈ 175 µM)
15 | N#CC1=C(N)Oc2[nH]c(=O)[nH]c(=S)c2C12C(=O)N(CCCBr)c1ccccc12 (configuration not stated) | 624 (≈ 1360 µM)
16 | N#CC1=C(N)Oc2[nH]c(=S)[nH]c(=O)c2C12C(=O)N(CCCCBr)c1ccccc12 (configuration not stated) | 78 (≈ 164 µM)
17 | N#CC1=C(N)Oc2[nH]c(=S)[nH]c(=O)c2C12C(=O)N(CCCCCCBr)c1ccccc12 (configuration not stated) | 78 (≈ 155 µM)
18 | N#CC1=C(N)Oc2[nH]c(=O)[nH]c(=S)c2C12C(=O)N(CCCCCCCCCCBr)c1ccccc12 (configuration not stated) | 39 (≈ 69.8 µM)
19 | N#CC1=C(N)Oc2c(c(=O)oc3ccccc23)C12C(=O)Nc1ccccc12 (configuration not stated) | 78 (≈ 218 µM)
20 | N#CC1=C(N)Oc2c(c(=O)oc3ccccc23)C12C(=O)Nc1ccc(Br)cc12 (configuration not stated) | 78 (≈ 179 µM)
21 | N#CC1=C(N)Oc2c(c(=O)oc3ccccc23)C12C(=O)N(CCBr)c1ccccc12 (configuration not stated) | 78 (≈ 168 µM)

Row | SMILES | IC50 [µg/mL]
22 | N#CC1=C(N)Oc2c(c(=O)oc3ccccc23)C12C(=O)N(CCCBr)c1ccccc12 (configuration not stated) | 156 (≈ 326 µM)
23 | N#CC1=C(N)Oc2c(c(=O)oc3ccccc23)C12C(=O)N(CCCCBr)c1ccccc12 (configuration not stated) | 78 (≈ 158 µM)
24 | N#CC1=C(N)Oc2c(c(=O)oc3ccccc23)C12C(=O)N(CCCCCCBr)c1ccccc12 (configuration not stated) | 156 (≈ 300 µM)
25 | N#CC1=C(N)Oc2c(c(=O)oc3ccccc23)C12C(=O)N(CCCCCCCCCCBr)c1ccccc12 (configuration not stated) | 39 (≈ 67.7 µM)
26 | CC1(C)CC(=O)C2=C(C1)OC(N)=C(C#N)C21C(=O)N(CCCCCCCCCCBr)c2ccccc21 (configuration not stated) | 2.5 (≈ 4.51 µM)
27 | N#CC1=C(N)OC2=C(C(=O)CCC2)C12C(=O)Nc1ccccc12 (configuration not stated) | 156 (≈ 508 µM)
28 | N#CC1=C(N)OC2=C(C(=O)CCC2)C12C(=O)Nc1ccc(Br)cc12 (configuration not stated) | 312 (≈ 808 µM)
29 | N#CC1=C(N)OC2=C(C(=O)CCC2)C12C(=O)N(CCBr)c1ccccc12 (configuration not stated) | 78 (≈ 188 µM)
30 | N#CC1=C(N)OC2=C(C(=O)CCC2)C12C(=O)N(CCCBr)c1ccccc12 (configuration not stated) | 624 (≈ 1460 µM)
31 | N#CC1=C(N)Oc2[nH]c(=O)[nH]c(=O)c2C12C(=O)Nc1ccccc12 (configuration not stated) | 312 (≈ 965 µM)
32 | N#CC1=C(N)Oc2[nH]c(=O)[nH]c(=O)c2C12C(=O)Nc1ccc(Br)cc12 (configuration not stated) | 78 (≈ 194 µM)
33 | N#CC1=C(N)Oc2[nH]c(=O)[nH]c(=O)c2C12C(=O)N(CCBr)c1ccccc12 (configuration not stated) | 78 (≈ 181 µM)
34 | N#CC1=C(N)Oc2[nH]c(=O)[nH]c(=O)c2C12C(=O)N(CCCBr)c1ccccc12 (configuration not stated) | 312 (≈ 702 µM)
35 | N#CC1=C(N)Oc2[nH]c(=O)[nH]c(=O)c2C12C(=O)N(CCCCBr)c1ccccc12 (configuration not stated) | 312 (≈ 681 µM)
36 | N#CC1=C(N)Oc2[nH]c(=O)[nH]c(=O)c2C12C(=O)N(CCCCCCBr)c1ccccc12 (configuration not stated) | 78 (≈ 160 µM)
37 | N#CC1=C(N)Oc2[nH]c(=O)[nH]c(=O)c2C12C(=O)N(CCCCCCCCCCBr)c1ccccc12 (configuration not stated) | 39 (≈ 71.9 µM)
38 | CC1(C)CC(=O)C2=C(C1)OC(N)=C(C#N)C21C(=O)N(CCBr)c2ccccc21 (configuration not stated) | 78 (≈ 176 µM)
39 | CC1(C)CC(=O)C2=C(C1)OC(N)=C(C#N)C21C(=O)N(CCCBr)c2ccccc21 (configuration not stated) | 312 (≈ 684 µM)
40 | CC1(C)CC(=O)C2=C(C1)OC(N)=C(C#N)C21C(=O)N(CCCCBr)c2ccccc21 (configuration not stated) | 156 (≈ 332 µM)
41 | CC1(C)CC(=O)C2=C(C1)OC(N)=C(C#N)C21C(=O)N(CCCCCCBr)c2ccccc21 (configuration not stated) | 78 (≈ 156 µM)
42 | O=NN(CCCl)C(=O)NCCCl [CARMUSTINE] | 3.9 (≈ 18.2 µM)

Reference: ChEMBL document CHEMBL3046261, “Efficient entry to diversely functionalized spirooxindoles from isatin and their biological activity” (Med Chem Res, 2013)
